According to patent US20240270715A1, “INHIBITORS OF TRANSGLUTAMINASES” (ZEDIRA GMBH, priority 2021, published 2024):

Key:
[1] = target: T1, recombinant human transglutaminase 2 (Homo sapiens, UniProt P21980); experiment: Transglutaminase assay: incorporation of dansylcadaverine into dimethylcasein (DCC-assay); assay type: biochemical; conditions: recombinant human TG2 10 nM, dansylcadaverine/dimethylcasein; read-out: IC50 TG2
T1 sequence (P21980 1-687): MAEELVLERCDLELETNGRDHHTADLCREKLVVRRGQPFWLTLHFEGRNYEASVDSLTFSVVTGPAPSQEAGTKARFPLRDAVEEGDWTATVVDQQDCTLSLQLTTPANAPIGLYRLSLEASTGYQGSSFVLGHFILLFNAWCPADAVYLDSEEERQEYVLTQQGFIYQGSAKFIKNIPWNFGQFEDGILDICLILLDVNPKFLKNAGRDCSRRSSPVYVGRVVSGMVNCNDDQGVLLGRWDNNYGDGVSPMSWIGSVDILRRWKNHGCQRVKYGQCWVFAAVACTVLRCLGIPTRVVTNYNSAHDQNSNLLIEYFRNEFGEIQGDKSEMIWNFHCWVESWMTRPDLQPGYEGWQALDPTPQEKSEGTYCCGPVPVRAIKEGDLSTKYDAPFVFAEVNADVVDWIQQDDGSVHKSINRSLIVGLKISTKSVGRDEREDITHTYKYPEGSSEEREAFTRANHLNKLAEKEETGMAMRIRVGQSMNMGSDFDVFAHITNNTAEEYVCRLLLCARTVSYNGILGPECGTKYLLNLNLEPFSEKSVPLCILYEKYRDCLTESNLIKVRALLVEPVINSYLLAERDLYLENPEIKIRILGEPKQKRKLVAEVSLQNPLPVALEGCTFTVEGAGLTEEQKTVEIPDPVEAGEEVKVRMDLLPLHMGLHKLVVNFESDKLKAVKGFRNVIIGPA
Experimental: To illustrate the advantage of branched alkyl moieties over aromatic moieties, we refer to reference compounds Ref. 2 (ZED1227, U.S. Pat. No. 9,434,763 B2) and Ref. 3 (A8, ZED1047). Inhibition data were determined using the classical fluorescent transamidation assay (dansylcadaverine incorporation into methylated casein, DCC-assay) as described [Büchold, C.; Hils, M.; Gerlach, U.; Weber, J.; Pelzer, C.; Heil, A.; Aeschlimann, D.; Pasternack, R. Features of ZED1227: The First-In-Class Tissue Transglutaminase Inhibitor Undergoing Clinical Evaluation for the Treatment of Celiac Disease. Cells 2022, 11, 1667. https://doi.org/10.3390/cells11101667]. Casein is one of the best known high molecular weight (24 kDa) protein substrates for transglutaminases. Please note, the IC50 value of Ref. 3 (A8) published in U.S. Pat. No. 9,434,763 B2 cannot be compared to the present data, relying on a fluorogenic isopeptidase assay.
To this extent, inhibition data were determined using the classical fluorescent transamidation assay (dansylcadaverine incorporation into methylated casein, DCC-assay) as described in Büchold et al. [Büchold, C.; Hils, M.; Gerlach, U.; Weber, J.; Pelzer, C.; Heil, A.; Aeschlimann, D.; Pasternack, R. Features of ZED1227: The First-In-Class Tissue Transglutaminase Inhibitor Undergoing Clinical Evaluation for the Treatment of Celiac Disease. Cells 2022, 11, 1667. https://doi.org/10.3390/cells11101667]. Casein is one of the best known high molecular weight (24 kDa) protein substrates for transglutaminases. Inhibition data of the inventive compounds was compared with inhibition of compounds disclosed in U.S. Pat. No. 9,434,763 B2, particularly, compound A8, which is denoted herein as Reference 3. It is noteworthy that the IC50 values of compounds A8 published in U.S. Pat. No. 9,434,763 B2 and E16 from U.S. Pat. No. 11,072,634 B2 cannot be compared to the present data, relying on a fluorogenic isopeptidase assay.
For the determination of potency of inhibitors against tissue transglutaminase, the incorporation of dansylcadaverine into dimethylcasein (Zedira product T036, Lorand et al., Anal Biochem, 1971, 44:221-31) was measured using recombinant human transglutaminase 2 (Zedira Product T022).
The tissue transglutaminase is diluted in buffer (50 mM Tris-HCl, 7.5 mM CaCl2, 150 mM NaCl, pH=7.4). The final concentration of TG2 in the assay is 10 nM.
A 10 mM inhibitor stock solution is prepared in DMSO, and from this a serial 1:2-fold dilution series is prepared also in DMSO. Each of the initial dilutions is subsequently diluted 1:50-fold with buffer (50 mM Tris-HCl, 7.5 mM CaCl2, 150 mM NaCl, pH=7.4) to yield the final working dilutions containing 2% (v/v) DMSO. 15 μl of inhibitor working dilution are added per well of a 96 well microtiter plate. As control, 15 μl of a 2% (v/v) DMSO solution prepared using the buffer mentioned above are added per well.
Immediately before starting the assay, 600 μl transglutaminase working solution are added to 11.4 ml assay buffer (50 mM Tris-HCl, 10 mM CaCl2, 10 mM glutathione, 2.5% glycerol, 16.7 μM dansylcadaverine, 4 μM N,N-dimethylcasein, 200 mM NaCl, pH=8.0). 285 μl of this reaction mix are added per well containing the inhibitor.
Increase in fluorescence is measured using λex=330 nm and λemG=500 nm at […] for 30 min. A slope of the increase in fluorescence between 20 and 30 min is calculated for determination of the IC50 value (inhibitor concentration at which 50% of the initial activity is blocked).
Analysis of enzymatic activity is performed by calculation of the slope of an increase in fluorescence intensity. IC50 values are calculated by plotting the enzymatic activity (as percentage from control containing 2% DMSO instead of inhibitor) against the inhibitor concentration. IC50 is defined as the inhibitor concentration blocking 50% of initial enzyme activity.

[2] = Log D by shake flask method (octanol / PBS pH 7.4, HPLC); assay type: physicochemical; conditions: octanol / PBS pH 7.4, shake flask; read-out: logD
Experimental: In order to classify the inventive compounds according to their lipophilicity, Log D values (distribution coefficient) were determined by means of the well-established shake flask method, measuring the partition of a compound between an octanol and phosphate-buffered saline (PBS, pH 7.4) by HPLC.
Compounds with a moderate lipophilicity (Log D values from 0 to 3) are usually advantaged for oral absorption, being in balance between solubility and permeability. However, sophisticated formulation of a compound might improve oral bioavailability for highly lipophilic compounds.

[3] = Caco-2 permeability assay (CacoReady kit); assay type: in vitro ADME; conditions: human
Experimental: Permeability coefficients (Papp values) were obtained from Caco-2 barrier studies predicting oral/intestinal bioavailability of the tested compounds. The assays were performed by using CacoReady™ ready-to-use kits from ReadyCell according to the manufacturers protocol.

For `CCNC(=O)C(=O)CC[C@H](NC(=O)c1cncn1C)C(=O)Nc1cccn(CC(=O)NC23CC4(C)CC(C)(CC(C)(C4)C2)C3)c1=O` [Compound I-28, (S)-N1-ethyl-N6-(1-(2-(3,5,7-trimethyl-1-adamantylamino)-2-oxoethyl)-2-oxo-1,2-dihydropyridin-3-yl)-5-(1-methyl-1H-imidazole-5-carboxamido)-2-oxohexanediamide], which IC50 [1] is on record?
The IC50 was less than 150 nM.

What about the logD [2] of the same compound?
Its logD is 1 to 3.

And the Papp [3]?
The Papp was less than 1 ×10⁻⁶ cm/s.

Which IC50 [1] does the source give for `CCNC(=O)C(=O)CC[C@H](NC(=O)c1csnn1)C(=O)Nc1cccn(CC(=O)NC23CC(C2)C3)c1=O` [Compound I-117, (S)-N1-(1-(2-(bicyclo[1.1.1]pentan-1-ylamino)-2-oxoethyl)-2-oxo-1,2-dihydropyridin-3-yl)-N6-ethyl-5-oxo-2-(1,2,3-thiadiazole-4-carboxamido)hexanediamide] here?
The IC50 was 150 to 600 nM.

What about the logD [2] of the same compound?
The logD was less than 1.

What about the Papp [3] of the same compound?
Its Papp is less than 1 ×10⁻⁶ cm/s.

For `CCNC(=O)C(=O)CC[C@H](NC(=O)c1cnc2ccc(OC(F)(F)F)cc2c1O)C(=O)Nc1cccn(CC(=O)N[C@@H]2C[C@@H]3CC[C@H]2C3)c1=O` [Compound I-99, (S)-N1-(1-(2-((1S,2R,4R)-bicyclo[2.2.1]heptan-2-ylamino)-2-oxoethyl)-2-oxo-1,2-dihydropyridin-3-yl)-N6-ethyl-2-(4-hydroxy-6-(trifluoromethoxy)quinoline-3-carboxamido)-5-oxohexanediamide], which IC50 [1] is on record?
The IC50 was 600 to 3500 nM.

What about the logD [2] of the same compound?
Its logD is 3 to 5.

What about the Papp [3] of the same compound?
Its Papp is less than 1 ×10⁻⁶ cm/s.

Which IC50 [1] does the source give for `CCNC(=O)C(=O)CC[C@H](NC(=O)c1nc(C2(C)CC2)no1)C(=O)Nc1cccn(CC(=O)NC2C3CC4CC2CC(C(N)=O)(C4)C3)c1=O` (stereo partly drawn) [Compound I-115, (S)-N1-ethyl-N6-(1-(2-(4-aminoadamantane-1-carboxamide)-2-oxoethyl)-2-oxo-1,2-dihydropyridin-3-yl)-5-(3-(1-methylcyclopropyl)-1,2,4-oxadiazole-5-carboxamido)-2-oxohexanediamide] here?
Its IC50 is 600 to 3500 nM.

And the logD [2]?
Its logD is less than 1.

What about the Papp [3] of the same compound?
Its Papp is less than 1 ×10⁻⁶ cm/s.

With `CCNC(=O)C(=O)CC[C@H](NC(=O)c1cncc([N+](=O)[O-])c1)C(=O)Nc1cccn(CC(=O)NCC23CC4CC(CC(C4)C2)C3)c1=O` [Compound I-65, (S)-N1-(1-(2-(1-adamantylmethylamino)-2-oxoethyl)-2-oxo-1,2-dihydropyridin-3-yl)-N6-ethyl-2-(5-nitronicotinamido)-5-oxohexanediamide] as the compound, how does the IC50 [1] read?
The IC50 was less than 150 nM.

And the logD [2]?
The logD was 1 to 3.

What about the Papp [3] of the same compound?
The Papp was 1 to 10 ×10⁻⁶ cm/s.

Which IC50 [1] does the source give for `CCNC(=O)C(=O)CC[C@H](NC(=O)c1c[nH]c2ccccc12)C(=O)Nc1cccn(CC(=O)NC2C3CC4CC(C3)CC2C4)c1=O` (stereo partly drawn) [Compound I-95, (S)-N1-ethyl-5-(1H-indole-3-carboxamido)-N6-(1-(2-(2-adamantylamino)-2-oxoethyl)-2-oxo-1,2-dihydropyridin-3-yl)-2-oxohexanediamide] here?
The IC50 was 150 to 600 nM.

And the logD [2]?
Its logD is 1 to 3.

And the Papp [3]?
Its Papp is 1 to 10 ×10⁻⁶ cm/s.

With `CCNC(=O)C(=O)CC[C@H](NC(=O)c1sc(C(F)(F)F)nc1C)C(=O)Nc1cccn(CC(=O)NC2C3CC4CC(C3)CC2C4)c1=O` (stereo partly drawn) [Compound I-40, (S)-N1-ethyl-N6-(1-(2-(2-adamantylamino)-2-oxoethyl)-2-oxo-1,2-dihydropyridin-3-yl)-5-(4-methyl-2-(trifluoromethyl)thiazole-5-carboxamido)-2-oxohexanediamide] as the compound, how does the IC50 [1] read?
The IC50 was less than 150 nM.

And the logD [2]?
Its logD is 1 to 3.

What about the Papp [3] of the same compound?
The Papp was 1 to 10 ×10⁻⁶ cm/s.

Which results are given for `CCNC(=O)C(=O)CC[C@H](NC(=O)[C@H]1CCNC1)C(=O)Nc1cccn(CC(=O)NC2C3CC4CC2CC(F)(C4)C3)c1=O` (stereo partly drawn) [Compound I-59, (S)-N1-ethyl-N6-(1-(2-(5-fluoroadamantane-2-amino)-2-oxoethyl)-2-oxo-1,2-dihydropyridin-3-yl)-2-oxo-5-((S)-pyrrolidine-3-carboxamido)hexanediamide]?
IC50 [1]: 150 to 600 nM; logD [2]: < 1; Papp [3]: < 1 ×10⁻⁶ cm/s

With `CCNC(=O)C(=O)CC[C@H](NC(=O)c1cn(C2CCCC2)cn1)C(=O)Nc1cccn(CC(=O)NC23CC4CC(CC(CC)(C4)C2)C3)c1=O` [Compound I-19, (S)-2-(1-cyclopentyl-1H-imidazole-4-carboxamido)-N6-ethyl-N1-(1-(2-(3-ethyladamantane-1-amino)-2-oxoethyl)-2-oxo-1,2-dihydropyridin-3-yl)-5-oxohexanediamide] as the compound, how does the IC50 [1] read?
The IC50 was 600 to 3500 nM.

What about the logD [2] of the same compound?
The logD was 3 to 5.

What about the Papp [3] of the same compound?
Its Papp is less than 1 ×10⁻⁶ cm/s.

What does the source list for `CCNC(=O)C(=O)CC[C@H](NC(=O)c1cn(C)nn1)C(=O)Nc1cccn(CC(=O)N[C@@H]2C[C@H]3CC[C@]2(C)C3(C)C)c1=O` [Compound I-75, (S)-N1-ethyl-5-(1-methyl-1H-1,2,3-triazole-4-carboxamido)-2-oxo-N6-(2-oxo-1-(2-oxo-2-((1R,2R,4R)-1,7,7-trimethylbicyclo[2.2.1]heptan-2-ylamino)ethyl)-1,2-dihydropyridin-3-yl)hexanediamide]?
IC50 [1]: 150 to 600 nM; logD [2]: < 1; Papp [3]: 1 to 10 ×10⁻⁶ cm/s

What does the source list for `CCNC(=O)C(=O)CC[C@H](NC(=O)c1oc(Br)cc1C)C(=O)Nc1cccn(CC(=O)NC2C3CC4CC(C3)CC2C4)c1=O` (stereo partly drawn) [Compound I-45, (S)-2-(5-bromo-3-methylfuran-2-carboxamido)-N6-ethyl-N1-(1-(2-(2-adamantylamino)-2-oxoethyl)-2-oxo-1,2-dihydropyridin-3-yl)-5-oxohexanediamide]?
IC50 [1]: < 150 nM; logD [2]: 3 to 5; Papp [3]: 1 to 10 ×10⁻⁶ cm/s

With `CCNC(=O)C(=O)CC[C@H](NC(=O)c1coc2ccccc12)C(=O)Nc1cccn(CC(=O)N[C@H]2C[C@H]3C[C@@H]([C@@H]2C)C3(C)C)c1=O` [Compound I-77, (S)-2-(benzofuran-3-carboxamido)-N6-ethyl-5-oxo-N1-(2-oxo-1-(2-oxo-2-((1S,2S,3S,5R)-2,6,6-trimethylbicyclo[3.1.1]heptan-3-ylamino)ethyl)-1,2-dihydropyridin-3-yl)hexanediamide] as the compound, how does the IC50 [1] read?
Its IC50 is 150 to 600 nM.

And the logD [2]?
The logD was 3 to 5.

What about the Papp [3] of the same compound?
The Papp was 1 to 10 ×10⁻⁶ cm/s.
